Assay results taken from patent US7728146B2, “Enzyme inhibitors” (Probiodrug AG, priority 2006, dated 2010).

Key:
[1] = biological target: dipeptidyl peptidase (DP IV) (UniProt P27487); assay: Determination of IC50 against DP IV (hydrolysis of Gly-Pro-pNA); format: biochemical, porcine kidney or recombinant human; settings: compounds obtained by preparative synthesis
Protocol: Determination of IC50 Against DP IV
Substances are screened for inhibition of dipeptidyl peptidase (DP IV) by their ability to inhibit the hydrolysis of the DP IV specific substrate Glycyl-Prolyl-4-Nitroanilide (Gly-Pro-pNA). All compounds are diluted in DMSO and IC50 will be determined with 11 serial dilutions (1:2) starting with an final concentration of 100 μM. The final DMSO concentration in the assay is 5% (v/v). The method was automated using a Tecan Genesis Freedom liquid handler and a Genius Pro (Tecan) microplate reader.
A stock solution of 0.102 M HEPES is prepared. Ionic strength (I=0.32) is adjusted by KCl and pH (pH 7.6) by KOH.
2.16 mM solution of Gly-Pro-pNA in deionized water is prepared.
All samples are dissolved in DMSO preparing a 10 mM stock solution.
DP IV from porcine kidney (pDP IV) or recombinant human DP IV (rhDP IV) is diluted in HEPES buffer to a final activity of approximately 40-50 μU*ml^−1. The DP IV is stored in a cooling rack (4° C.) on the liquid handler.
The assay may becarried out at room temperature using Freedom liquid handler connected with a Genios Pro microplate reader. Each sample is measured in duplicate. Each sample stock solution is prediluted with DMSO in a ratio of 1:5 in a polypropylen 96-well plate. From this predilution 10 serial (1:2) dilutions in DMSO are prepared. 13.5 μl of the 11 DMSO dilutions and DMSO alone are transferred to the measurement microplate (duplicates) and 86.5 μl water, 100 μl HEPES buffer and 50 μl substrate solution are added to each well. The enzymatic reaction is started by addition of 20 μl enzyme solution to each well, and then the microplate is immediately transferred to the microplate reader.
After short mixing (20 s) the release of 4-Nitroanilin (pNA) is monitored at 405 nm for 30 cycles (approx. 18 min).
Post assay calculations are done by the Magellan (Tecan) and Graphit Software. The linear slopes are calculated for each well and averaged for the duplicates. The residue activities are calculated in relation to a sample containing only solvent instead of inhibitor and expressed in %. Residue activities are plotted against the log of inhibitor concentrations and IC50 is calculated by an 4-parameter fitting ranging from 0 to 100%.

DP IV [2] = biological target: T1, DP IV (Homo sapiens, UniProt P27487); assay: Ki and inhibition type, DP IV; format: biochemical; settings: compounds obtained by preparative synthesis
Protocol: Measurement of DP IV activities for Ki determination is carried out as described for IC50. For Ki determination samples were analysed in triplicates. 7 serial dilutions of the inhibitor (range calculated from the IC50 determination) in water are analyzed with 4 serial dilutions of the substrate.
Data are analysed by non-linear regression to the inhibitor equations using Graphit software. Ki-value and inhibition type are determined using the inhibitor equation (competitive, partiell competitive, non-competitive) which gives the best fitting results. […]

DPII = DPII (Homo sapiens, UniProt Q9UHL4); assay: DPII assay; format: biochemical; settings: for Selectivity DPII(IC50)/DPIV(Ki): ratio IC50 DPII / Ki DP IV
Protocol: (§1) Determination of IC50 values for DPII and DP9 are done similarly as described for DP IV.
For DPII instead of the HEPES buffer a 0.2 M sodium acetate buffer pH 5.5 is used. As substrate Gly-Pro-AMC is used in a final concentration of 1 mM.

DP9 = DP9 (Homo sapiens, UniProt Q86TI2); assay: DP9 assay; format: biochemical; settings: for IC50: Gly Pro-AMC 0.25 mM; for Selectivity DP9(IC50)/DPIV(Ki): ratio IC50 DP9 / Ki DP IV
Protocol: as §1
For DP9 Gly Pro-AMC is used as substrate in a final concentration of 0.25 mM.

[3] = tested on: liver cell carcinoma cell line Hep-G2; assay: Cytotoxicity screening and LD50 determination on Hep-G2 (LDH, CytoTox-One); format: cell-based; settings: for Cytotox 100 μM (%) HEPG2 / Viability 100 μM (%) HEP-G2: 24 h; for Cytotox 100 μM (%) HEPG2: LDH activity in cell culture media, lysed untreated cells = 100%; for Viability 100 μM (%) HEP-G2: LDH of lysed cells, untreated control = 100%; for Observed cytotox: Hep-G2, observation of the cells
Protocol: Cytotoxicity of the compounds may be screened using the liver cell carcinoma cell line Hep-G2.
(§2) After 24 h of cultivation in a 96 well plate (50 000 cells/well) compounds (dissolved in DMSO) are added and cytotoxicity and vitality of the cells are analysed after another 24 h of cultivation using the CytoTox-One Homogenoeous membrane toxicity assay (Promega).
Three concentrations (100 μM, 2 μM, 40 nM) of each compound are analysed in triplicates. The final DMSO concentration was 1%.
(§3) For cytotoxicity the LDH activity in the cell culture media after 24 h of incubation are analysed. The untreated control is set to 0% cytotoxicity. For the 100% value LDH activity of lysed untreated cells are analysed.
(§4) For viability cell culture media are removed from the cells and all cells are lysed using the lysis buffer. LDH activity is determined and untreated control is set to 100% viability.
(§5) For determination of LD50 the liver carcinoma cell line HEP-G2 and the neuroblastoma cell line SY5Y may be used. The effect of 8 serial dilutions of the compounds (highest concentration 1 mM) is investigated as described above.
The cytotoxicity of certain example compounds (in each case prepared by preparative synthesis) was screened using Hep-G2 cells. Compounds were tested in concentrations of 100 μM, 2 μM and 40 nM.

DP IV [4] = biological target: T1, DP IV; assay: DP IV inhibition IC50, parallel-synthesis compounds tested directly following synthesis (without purification); format: biochemical; parameters: IC50 DP4; other: tested directly following parallel synthesis, without purification; compounds of formula (Ib) from parallel synthesis, tested directly following synthesis; settings: DP IV inhibition; compounds of formula (Ib) from parallel synthesis, tested directly following synthesis (without purification); read-out: IC50
Method in brief: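 IC50 came from a 4-parameter fit of residual activity (linear 405 nm slopes for pNA release over ~18 min, relative to solvent-only wells). Gly-Pro-pNA was the substrate, cleaved by porcine kidney or recombinant human DP IV at room temperature in HEPES with 5% DMSO; duplicate 1:2 series started at 100 μM final.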

[5] = tested on: neuroblastoma cell line SY5Y; assay: LD50 determination on SY5Y (LDH); format: cell-based; settings: 8 serial dilutions, highest concentration 1 mM
Protocol: as §2, §3, §4, §5

[6] = sodium acetate buffer pH 5.5, Gly-Pro-AMC 1 mM
[7] = 8 serial dilutions, highest concentration 1 mM

T1 sequence (P27487 whole entry): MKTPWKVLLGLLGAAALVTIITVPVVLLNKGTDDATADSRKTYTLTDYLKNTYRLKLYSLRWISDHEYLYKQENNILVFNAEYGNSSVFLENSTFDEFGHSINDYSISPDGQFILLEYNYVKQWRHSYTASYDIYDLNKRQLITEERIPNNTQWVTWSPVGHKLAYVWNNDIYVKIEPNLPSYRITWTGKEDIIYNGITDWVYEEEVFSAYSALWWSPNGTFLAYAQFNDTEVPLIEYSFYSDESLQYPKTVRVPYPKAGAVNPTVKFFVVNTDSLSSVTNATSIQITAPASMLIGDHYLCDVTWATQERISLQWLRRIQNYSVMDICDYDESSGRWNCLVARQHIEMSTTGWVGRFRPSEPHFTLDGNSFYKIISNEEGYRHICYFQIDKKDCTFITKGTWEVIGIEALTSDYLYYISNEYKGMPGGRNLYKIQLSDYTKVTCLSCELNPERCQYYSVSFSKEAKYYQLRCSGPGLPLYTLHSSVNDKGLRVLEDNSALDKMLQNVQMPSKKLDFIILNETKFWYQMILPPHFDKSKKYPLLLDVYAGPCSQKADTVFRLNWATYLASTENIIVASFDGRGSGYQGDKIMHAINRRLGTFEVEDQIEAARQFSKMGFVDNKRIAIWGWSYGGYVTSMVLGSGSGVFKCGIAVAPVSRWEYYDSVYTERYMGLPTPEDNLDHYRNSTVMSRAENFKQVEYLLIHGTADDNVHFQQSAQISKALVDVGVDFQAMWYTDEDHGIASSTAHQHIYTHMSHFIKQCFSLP
Chain of DP9 (Q86TI2 whole entry, species assumed): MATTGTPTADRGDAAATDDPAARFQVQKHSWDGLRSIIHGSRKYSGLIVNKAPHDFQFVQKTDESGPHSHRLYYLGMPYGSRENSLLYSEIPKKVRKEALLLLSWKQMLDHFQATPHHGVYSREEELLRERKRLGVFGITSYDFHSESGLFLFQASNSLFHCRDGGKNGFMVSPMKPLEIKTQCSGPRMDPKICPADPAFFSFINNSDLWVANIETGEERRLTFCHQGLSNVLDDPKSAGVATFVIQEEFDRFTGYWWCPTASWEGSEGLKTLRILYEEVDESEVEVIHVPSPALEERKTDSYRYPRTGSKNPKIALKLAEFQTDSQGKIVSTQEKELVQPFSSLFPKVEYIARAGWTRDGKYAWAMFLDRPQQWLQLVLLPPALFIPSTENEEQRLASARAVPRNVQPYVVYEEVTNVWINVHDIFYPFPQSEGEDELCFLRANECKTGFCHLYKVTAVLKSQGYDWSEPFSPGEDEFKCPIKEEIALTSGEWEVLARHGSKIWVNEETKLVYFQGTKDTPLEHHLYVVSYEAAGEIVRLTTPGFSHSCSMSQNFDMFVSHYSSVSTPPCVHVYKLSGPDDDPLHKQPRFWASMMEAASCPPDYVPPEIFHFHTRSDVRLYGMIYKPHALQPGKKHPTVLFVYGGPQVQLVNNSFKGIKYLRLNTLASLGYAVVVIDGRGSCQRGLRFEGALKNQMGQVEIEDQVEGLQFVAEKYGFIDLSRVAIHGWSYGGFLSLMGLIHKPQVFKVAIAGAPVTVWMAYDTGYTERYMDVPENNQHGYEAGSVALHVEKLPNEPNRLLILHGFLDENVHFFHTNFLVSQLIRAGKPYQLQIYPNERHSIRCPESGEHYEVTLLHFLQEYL

Row | SMILES | IC50 [1] [nM] | Ki (DP IV [2]) [nM] | Selectivity DPII(IC50)/DPIV(Ki) (DPII) | IC50 (DPII; [6]) [nM] | IC50 (DP9) [nM] | Selectivity DP9(IC50)/DPIV(Ki) (DP9) | Cytotox 100 μM (%) HEPG2 ([3]; 100 μM) [%] | Viability 100 μM (%) HEP-G2 ([3]; 100 μM) [%] | IC50 (DP IV [4]) [nM] | Observed cytotox ([3]; 100 μM) | IC50 (DPII; values >1e−4 are extrapolated values) [nM] | Ki (DPII) [nM] | LD50 Viability HEP-G2 [3, 7] [mM] | LD50 cytotox HEP-G2 [3, 7] [mM] | LD50 Viability SY5Y [5] [mM] | LD50 cytotox SY5Y [5] [mM] | cytotoxic effects (summary in words) ([3]; 100 μM, Hep-G2) | Ki (DP9) [nM]
1 | NCc1c(-c2ccc(Cl)cc2Cl)ncn1Cc1ccc2c(c1)OCO2 [Example 125b, C-[3-benzo[1,3]dioxol-5-ylmethyl-5-(2,4-dichloro-phenyl)-3H-imidazol-4-yl]-methylamine] | 371 | 38 | 471 | 17900 | 74700 | 1,966 | 10.6 | 88.9 | – | – | – | – | – | – | – | – | – | –
2 | NCc1c(-c2ccc(Cl)cc2Cl)ncn1CCCCCO [Example 38b, 5-[5-aminomethyl-4-(2,4-dichloro-phenyl)-imidazol-1-yl]-pentan-1-ol] | 848 | 41.1 | 1,474 | 60600 | 46500 | 1,131 | 0 | 106.7 | 1900 | – | – | – | – | – | – | – | – | –
3 | CC(C)(C)CCn1cnc(-c2ccc(Cl)cc2Cl)c1CN [Example 23b, C-[5-(2,4-dichloro-phenyl)-3-(3,3-dimethyl-butyl)-3H-imidazol-4-yl]-methylamine] | 903 | 23.6 | – | – | 56100 | 2,377 | 56.8 | 98.6 | 8200 | 50% lysis, 100% | – | – | – | – | – | – | – | –
4 | NCc1c(-c2ccc(Cl)cc2Cl)ncn1CCCn1ccnc1 [Example 104b, C-[5-(2,4-dichloro-phenyl)-3-(3-imidazol-1-yl-propyl)-3H-imidazol-4-yl]-methylamine] | 408 | 30.2 | 9,172 | – | 17500 | 579 | 2.9 | 104.1 | 5500 | – | 277000 | – | – | – | – | – | – | –
5 | NCc1c(-c2ccc(Cl)cc2Cl)ncn1Cc1ccccc1OC(F)(F)F [Example 129b, C-[5-(2,4-dichloro-phenyl)-3-(2-trifluoromethoxy-benzyl)-3H-imidazol-4-yl]-methylamine] | 70 | 6.54 | 237 | 1550 | 53200 | 8,135 | – | – | – | – | – | 4420 | 0.15 | 0.16 | 0.13 | 0.21 | – | –
6 | CC(C)(C)Cn1cnc(-c2ccc(Cl)cc2Cl)c1CN [Example 11b, C-[5-(2,4-dichloro-phenyl)-3-(2,2-dimethyl-propyl)-3H-imidazol-4-yl]-methylamine] | 2580 | 57.5 | 1,457 | 83800 | – | – | 4.6 | 113.1 | 6400 | – | – | – | – | – | – | – | No cytotoxic effects | –
7 | NCc1c(-c2ccc(Cl)cc2Cl)ncn1CCc1ccccc1Cl [Example 21b, C-[3-[2-(2-chloro-phenyl)-ethyl]-5-(2,4-dichloro-phenyl)-3H-imidazol-4-yl]-methylamine] | 514 | 29.4 | 157 | 4620 | 1280 | 44 | 97.1 | 9.8 | 1900 | 100% lysis | – | 3180 | – | – | – | – | – | 925
